Measured values published in ChEMBL document CHEMBL1137586, “Aminomethyl tetrahydronaphthalene ketopiperazine MCH-R1 antagonists--Increasing selectivity over hERG” (Bioorg Med Chem Lett, 2007).

Experiments:
[1] = biological target: T1, Melanin-concentrating hormone receptor 1 (Homo sapiens, UniProt Q99705); experiment: Functional antagonism of MCH-R1 expressed in HEK293 cells; type: cell-based
[2] = Serum concentration in DIO mice 2 hr post 20mg/kg peroral dose; type: ADME, organism-based; details: mouse, po, read-out: Serum conc
[3] = biological target: T2, Voltage-gated inwardly rectifying potassium channel KCNH2 (Homo sapiens, UniProt Q12809); experiment: Prolonged QTc interval in anaesthetized dogs after 15min infusion at 30 mg/kg compared to vehicle; details: dog, in vivo, iv, 0.25 h
T2 sequence (Q12809 whole entry, the tested form may be a part): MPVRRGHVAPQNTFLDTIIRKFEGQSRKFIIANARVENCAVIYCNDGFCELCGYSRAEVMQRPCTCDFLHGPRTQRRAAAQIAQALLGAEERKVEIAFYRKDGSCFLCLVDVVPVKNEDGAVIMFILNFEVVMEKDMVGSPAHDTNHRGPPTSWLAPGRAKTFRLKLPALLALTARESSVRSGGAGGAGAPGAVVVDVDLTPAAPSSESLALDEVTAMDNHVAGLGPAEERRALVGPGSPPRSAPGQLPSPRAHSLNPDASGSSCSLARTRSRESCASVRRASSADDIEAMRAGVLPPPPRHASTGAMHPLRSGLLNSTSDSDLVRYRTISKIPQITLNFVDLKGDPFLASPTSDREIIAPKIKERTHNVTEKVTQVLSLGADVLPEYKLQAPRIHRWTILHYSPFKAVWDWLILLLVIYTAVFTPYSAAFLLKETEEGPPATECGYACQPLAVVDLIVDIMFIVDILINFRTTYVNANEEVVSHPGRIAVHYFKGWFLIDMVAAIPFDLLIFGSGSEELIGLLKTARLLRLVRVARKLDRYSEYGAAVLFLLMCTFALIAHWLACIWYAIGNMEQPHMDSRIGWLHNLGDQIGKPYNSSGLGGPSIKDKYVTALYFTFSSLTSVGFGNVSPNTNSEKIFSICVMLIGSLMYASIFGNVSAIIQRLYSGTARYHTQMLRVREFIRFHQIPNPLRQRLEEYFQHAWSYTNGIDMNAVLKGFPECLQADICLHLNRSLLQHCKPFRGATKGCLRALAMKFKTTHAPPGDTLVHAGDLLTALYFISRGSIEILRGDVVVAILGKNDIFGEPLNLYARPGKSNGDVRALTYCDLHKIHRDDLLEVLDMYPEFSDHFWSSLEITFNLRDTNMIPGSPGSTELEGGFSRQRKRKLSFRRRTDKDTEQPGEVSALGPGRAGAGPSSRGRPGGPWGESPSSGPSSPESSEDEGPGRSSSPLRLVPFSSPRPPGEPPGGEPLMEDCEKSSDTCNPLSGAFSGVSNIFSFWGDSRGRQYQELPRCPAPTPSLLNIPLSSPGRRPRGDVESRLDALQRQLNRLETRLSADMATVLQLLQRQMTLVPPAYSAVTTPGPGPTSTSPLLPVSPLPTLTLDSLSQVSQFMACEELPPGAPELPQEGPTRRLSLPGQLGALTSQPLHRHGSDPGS

[4] = biological target: T2, Voltage-gated inwardly rectifying potassium channel KCNH2; experiment: Inhibition of binding to hERG
[5] = Relative concentration in DIO mouse brain over serum 2 hr post 20mg/kg peroral dose; type: ADME, organism-based; details: po
[6] = tested on: Mus musculus; experiment: Percent weight loss in DIO mice 4 days after 20 mg/kg peroral dose; type: functional; details: route oral
[7] = biological target: hERG (KCNH2) (Homo sapiens, UniProt Q12809); experiment: Percent inhibition of binding to hERG at10uM
Sequence of hERG (KCNH2) (Q12809 whole entry): as the sequence (Q12809 whole entry, the tested form may be a part) above

[8] = biological target: T1, Melanin-concentrating hormone receptor 1; experiment: Inhibition of binding to MCH-R1

T1 sequence (Q99705 whole entry): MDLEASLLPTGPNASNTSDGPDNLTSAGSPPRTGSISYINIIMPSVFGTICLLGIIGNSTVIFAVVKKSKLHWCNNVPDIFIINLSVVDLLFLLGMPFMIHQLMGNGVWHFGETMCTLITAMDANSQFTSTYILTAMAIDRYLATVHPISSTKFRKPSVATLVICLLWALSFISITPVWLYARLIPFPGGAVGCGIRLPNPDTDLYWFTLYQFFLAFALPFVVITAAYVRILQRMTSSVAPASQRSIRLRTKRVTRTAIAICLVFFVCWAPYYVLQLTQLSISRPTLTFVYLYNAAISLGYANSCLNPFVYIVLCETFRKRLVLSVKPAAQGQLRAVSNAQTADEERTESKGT

| Ki [1] | concentration at 2 h [2] | SMILES | IC50 [4] | Weight loss [6] | further results |
| --- | --- | --- | --- | --- | --- |
| 16 µM | 4 µM | CC(=O)N1CCN(Cc2ccc3c(c2)CC[C@H](N2CCN(CCc4ccc(F)cc4)CC2=O)C3)CC1 | 25 µM | <2% | QT interval [3]: Active p<0.05; Kp at 2 h [5]: 0.3 |
| – | 16 µM | O=C1CN(CCc2ccc(F)cc2)CCN1[C@H]1CCc2cc(CN3CCS(=O)(=O)CC3)ccc2C1 | 24 µM | <2% | – |
| 0.032 µM | – | CCN(CC)Cc1ccc2c(c1)CC[C@H](N1CCN(CCC3CCCCC3)CC1=O)C2 | – | – | – |
| 52 µM | – | O=C1CN(CCc2ccc(F)cc2)CCN1[C@H]1CCc2cc(Cn3ccnc3)ccc2C1 | 4 µM | – | – |
| – | – | O=C1CN(CCc2ccc(F)cc2)CCN1[C@H]1CCc2cc(CNCC(F)(F)F)ccc2C1 | – | – | inhibition at 10 µM [7]: > 50% |
| 30 µM | 9 µM | CS(=O)(=O)N1CCN(Cc2ccc3c(c2)CC[C@H](N2CCN(CCc4ccc(F)cc4)CC2=O)C3)CC1 | 13 µM | 3% | – |
| 0.047 µM | – | CCN(CC)Cc1ccc2c(c1)CC[C@H](N1CCN(CCC3CCCS3)CC1=O)C2 (stereo partly drawn) | – | – | – |
| 0.093 µM | – | CCN(CC)Cc1ccc2c(c1)CC[C@H](N1CCN(CCc3cccc(C(F)(F)F)c3)CC1=O)C2 | – | – | – |
| – | – | CN(C)C(=O)C(CO)N(C)Cc1ccc2c(c1)CC[C@H](N1CCN(CCc3ccc(F)cc3)CC1=O)C2 (stereo partly drawn) | 25 µM | – | – |
| 0.0033 µM | – | CCN(CC)Cc1ccc2c(c1)CC[C@H](N1CCN(CCc3ccc(Cl)cc3)CC1=O)C2 | – | – | – |
| – | 2 µM | CCN(CC)Cc1ccc2c(c1)CC[C@H](N1CCN(CCc3ccc(F)cc3)CC1=O)C2 | – | 4% | Ki [8]: 0.015 µM |
| 8.7 µM | – | O=C1CN(CCc2ccc(F)cc2)CCN1[C@H]1CCc2cc(CN3CCC(C(F)(F)F)CC3)ccc2C1 | 2 µM | – | – |
| 15 µM | – | O=C1CN(CCc2ccc(F)cc2)CCN1[C@H]1CCc2cc(CN3CCOCC3)ccc2C1 | 11 µM | – | – |
